According to patent US20230192701A1, “BICYCLIC KINASE INHIBITORS AND USES THEREOF” (iOmx Therapeutics AG, priority 2020, published 2023):
In brackets after ≈: the same amount, converted by molar mass.

How the values were obtained:
MC38 tumour cells = assay: TNF-sensitised cell viability assay (CellTiter-Glo), MC38; assay type: cell-based, murine; conditions: Mus musculus, MC-38, read-out: MC38 IC50 (at 100 ng/ml rMuTNF); 100 ng/ml rMuTNF, 72 h
Method: (§1) Cell viability of HCT116 tumour cells was measured using the CellTiter-Glo (CTG) luminescent cell viability assay (Promega, Madison, USA) according to the manufacturer's protocol. In short, 1×10^3 HCT116 cells were seeded in a 384-well plate for 24 h and subsequently treated with different concentrations of compounds and 10 ng/ml rHuTNF for 72 h at 37° C. and 5% CO2. After incubation, CTG reagent was added to the wells and cells were lysed for 10 min. Read-out was performed using the Tecan reader with 0.1 sec counting time. TNF-induced cell killing in human PANC1 and murine MC38 tumour cells was measured analogously to the assay in human HCT116 cells, except that for the PANC1 assay 100 ng/ml rHuTNF and for the MC38 assay 100 ng/ml rMuTNF were used.

[1] = Mouse liver microsomal stability; assay type: in vitro ADME; conditions: pH 7.4; mouse liver microsomes, NADPH, 37°C
Method: (§2) Briefly, human and liver microsomal stability was determined by pre-incubation of 2.5 uL compound and 75 uL of the respective liver microsomes in potassium phosphate buffer (pH 7.4) at 37° C. After adding of NADPH as cofactor and further incubation at 37° C. for 60 min, acetonitrile containing internal standard was added, and the sample was vortexed for 5 min at 1200 rpm and then centrifuged 10 min at 4000 rpm.
(§3) LC-MS/MS was performed for all assays using a C18 column (50*4.6 mm, 5 um) for the CaCo2 assay, or a C18 column (50*4.6 mm, 4 um) for the other assays. The mobile phases used were 10 mM Ammonium Acetate with 0.1% Formic acid (aqueous) and 100% Acetonitrile (organic).

SIK2 = SIK2 (Homo sapiens, UniProt Q9H0K1); assay: radiometric protein kinase assay (33PanQinase Activity Assay), SIK2; assay type: biochemical; conditions: for IC50: ATP 1.0 μM, substrate RBER-CHKtide; for inhibiting SIK2 compared to PY1: in words
Method: (§4) The IC50s of the compounds against the SIK family of protein-serine/threonine kinases (SIK2 and SIK3) were determined as followed. Briefly, a radiometric protein kinase assay (33PanQinase® Activity Assay) was used for measuring the kinase activity of the two protein kinases. The kinase assays were performed in 96-well FlashPlates™ from PerkinElmer (Boston, Mass., USA) in a 50 uL reaction volume. The reaction cocktail was pipetted in four steps in the following order: • […] (standard buffer/[gamma-33P]-ATP) • 10 uL of ATP solution (in water) • 5 uL of test compound (in 10% DMSO) • 20 uL enzyme/substrate mix
(§5) The following amounts of enzyme and applicable substrate were used per well:
(§6) The reaction cocktails were incubated at 30 °C for 60 minutes. The reaction was stopped with 50 uL of 2% (v/v) H3PO4, plates were aspirated and washed two times with 200 μL 0.9% (w/v) NaCl. Incorporation of 33Pi was determined with a microplate scintillation counter (Microbeta, Wallac). All assays were performed with a BeckmanCoulter/SAGIAN™ Core System.

[2] = Human hepatocyte stability; assay type: in vitro ADME; conditions: human hepatocytes, 37°C
Method: (§7) Determination of human and mice hepatocyte stability was conducted as follows. 200 uL of the respective hepatocyte cell suspension (2×10e6/ml) was preincubated at 37° C. for 10 min. Then, 200 uL of a 2 uM working stock of the test compound was added to the hepatocyte cell suspension, and the mixture was further incubated at 37° C. and 500 rpm. The reaction was stopped at 30, 60 and 120 min by precipitating 50 uL of the incubation mixture with 200 uL of acetonitrile. Samples were vortexed for 5 min at 1200 rpm and centrifuged at 4000 rpm for 10 min. Intrinsic clearance and half-life were analysed using LC-MS/MS.
as §3

Kinetic solubility assay = assay type: physicochemical; conditions: aqueous buffer, kinetic from dmso stock; PBS buffer pH 7.4, 1.0% DMSO, 24 h at RT
Method: The Kinetic solubility assay was conducted as follows. 4 uL compound of the 50 mM DMSO stock was added to deep well plate containing 396 uL PBS buffer (pH 7.4). The DMSO content in the sample was 1.0%, and the compound concentration 500 μM. The sample plate was vortexed at 800 rpm for 24 h at RT on a thermomixer. At the end of the incubation period, the sample plate was centrifuged at 4000 rpm for 10 mins. 3 uL of supernatant was transferred to well containing 297 uL of ISTD in Acetonitrile water:50:50, v/v and analysed in LC-MS/MS against a calibration curve (CC).

[3] = Murine plasma protein binding (RED method); assay type: in vitro ADME; conditions: mouse
Method: (§8) Human and mice protein plasma binding was determined using the Plasma Protein Binding by RED Method. Briefly, 200 uL of the respective plasma containing the test compound (10 uM) was spiked into the donor well (RED Chamber) of the insert. 350 uL of PBS was spiked into receiver well (white chamber). The plate was incubated at 37° C. in a thermomixer at 400 rpm for 5 hours. The samples were matrix equilibrated with opposite matrix (25 uL blank buffet/Plasma). Matrix matched samples were precipitated with 200 uL of Acetonitrile containing Internal standard. Samples were vortexed at 1000 rpm for 5 min and centrifuged at 4000 rpm for 10 min. The supernatant was diluted 2 folds with water and % bound and unbound protein and % recovery at 5 h was determined by LC-MS/MS.
as §3

[4] = Mouse hepatocyte stability; assay type: in vitro ADME; conditions: mouse hepatocytes, 37°C
Method: as §7, §3

[5] = CaCo2 permeability and efflux assay; assay type: in vitro ADME; conditions: human, Caco-2; CaCo2, mean efflux ratio
Method: (§9) To determine apparent permeability of the compounds an assay using a Caco-2 cells monolayer (cultured for 21d) in a 24-well format (poly carbonate high pore density plate with 0.4 μm pore size and a 0.7 cm2 active membrane area; Millipore) was performed as followed. 800 uL of DMEM was added to the basal compartment of the 24 well-plate and 60000 CaCo2 cells/well were seeded in the apical wells and incubated in a CO2 incubator at 37° C. for proliferation of cells. Apical to Basal permeability was determined by adding 400 uL of test compound to the apical well and 800 uL of HBSS buffer with 2% BSA to the basal well. 25 uL of basal sample was collected after 120 min and processed as stated below. Basal to Apical permeability was determined by adding 800 uL of test compound to basal well and 400 uL of HBSS buffer with 2% BSA to apical well. 25 uL of apical sample was collected after 120 min and processed as stated below. The samples were processed by diluting the donor samples 1:1 with HBSS containing 2% BSA and the receiver samples 1:1 with HBSS buffer. Samples were then precipitated with 200 uL of acetonitrile containing internal standard, vortexed for 5 min at 1000 rpm, and centrifuged at 4000 rpm for 20 min. 150 uL of supernatant was diluted with 150 uL of water and submitted for LC-MS/MS analysis, and Bi-directional (A-B and B-A) apparent permeability (Papp) was calculated.
as §3

Caco-2 cells monolayer = assay: CaCo2 permeability and efflux assay; assay type: in vitro ADME; conditions: CaCo2, apical to basal, 120 min
Method: as §9, §3

[6] = Human plasma-protein binding (RED method); assay type: in vitro ADME
Method: as §8, §3

[7] = target: 335 wild-type protein kinases; assay: single-point inhibition assays, residual activity (ProQinase Kinase Profiler); assay type: biochemical; conditions: single-point 0.1 uM and 1 uM, 335 kinases
Method: Several compounds of Formula (I) described herein were also tested in single-point (0.1 uM and 1 uM) inhibition assays over a diverse set of 335 wild-type protein (ProQinase “Kinase Profiler”; ProQinase, Freiburg, Germany), in which the residual activity of each kinase was determined. […] Secondly, the residual activity of each kinase was compared to other compounds tested (in particular, against the prior art compounds PY1) by use of scatter plots.

[8] = Human liver microsomal stability; assay type: in vitro ADME; conditions: pH 7.4; human liver microsomes, NADPH, 37°C
Method: as §2, §3

SIK3 = SIK3 (Homo sapiens, UniProt Q9Y2K2); assay: radiometric protein kinase assay (33PanQinase Activity Assay), SIK3; assay type: biochemical; conditions: for IC50: ATP 1.0 μM, substrate RBER-CHKtide; for inhibiting SIK3 compared to PY1 / selectivity towards SIK3 over SIK2: in words
Method: as §4, §5, §6

HCT116 tumour cells = assay: TNF-sensitised cell viability assay (CellTiter-Glo), HCT116; assay type: cell-based, human; conditions: Homo sapiens, HCT-116, read-out: HCT116 IC50 (at 10 ng/ml rHuTNF); 10 ng/ml rHuTNF, 72 h
Method: as §1

PANC1 tumour cells = assay: TNF-sensitised cell viability assay (CellTiter-Glo), PANC1; assay type: cell-based, human; conditions: Homo sapiens, PANC-1, read-out: PANC IC50 (at 100 ng/ml rHuTNF); 100 ng/ml rHuTNF, 72 h
Method: as §1

Chain of SIK2 (Q9H0K1 whole entry): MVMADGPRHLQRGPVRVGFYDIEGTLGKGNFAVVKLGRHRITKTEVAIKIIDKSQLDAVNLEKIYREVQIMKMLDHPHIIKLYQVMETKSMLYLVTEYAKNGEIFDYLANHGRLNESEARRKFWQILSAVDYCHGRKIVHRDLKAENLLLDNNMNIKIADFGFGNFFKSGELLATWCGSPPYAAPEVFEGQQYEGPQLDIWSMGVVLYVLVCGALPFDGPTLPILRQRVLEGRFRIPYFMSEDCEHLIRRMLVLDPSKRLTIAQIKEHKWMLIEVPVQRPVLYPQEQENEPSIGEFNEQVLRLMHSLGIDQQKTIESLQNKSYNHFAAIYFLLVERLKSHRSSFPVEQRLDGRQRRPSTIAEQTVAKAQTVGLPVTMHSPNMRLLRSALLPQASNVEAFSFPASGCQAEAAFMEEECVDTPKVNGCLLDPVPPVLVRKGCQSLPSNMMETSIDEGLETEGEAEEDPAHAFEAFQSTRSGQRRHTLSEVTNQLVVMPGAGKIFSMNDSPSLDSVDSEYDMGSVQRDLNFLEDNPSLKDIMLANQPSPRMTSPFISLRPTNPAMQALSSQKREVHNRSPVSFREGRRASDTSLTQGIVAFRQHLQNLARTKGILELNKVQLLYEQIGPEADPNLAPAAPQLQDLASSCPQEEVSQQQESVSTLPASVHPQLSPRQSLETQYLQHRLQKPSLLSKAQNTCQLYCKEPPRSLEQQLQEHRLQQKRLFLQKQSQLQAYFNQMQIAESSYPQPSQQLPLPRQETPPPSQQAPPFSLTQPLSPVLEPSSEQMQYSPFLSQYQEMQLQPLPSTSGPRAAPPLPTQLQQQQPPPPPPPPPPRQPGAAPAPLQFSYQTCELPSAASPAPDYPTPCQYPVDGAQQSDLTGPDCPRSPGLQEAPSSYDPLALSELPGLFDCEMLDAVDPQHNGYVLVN
Chain of SIK3 (Q9Y2K2 whole entry): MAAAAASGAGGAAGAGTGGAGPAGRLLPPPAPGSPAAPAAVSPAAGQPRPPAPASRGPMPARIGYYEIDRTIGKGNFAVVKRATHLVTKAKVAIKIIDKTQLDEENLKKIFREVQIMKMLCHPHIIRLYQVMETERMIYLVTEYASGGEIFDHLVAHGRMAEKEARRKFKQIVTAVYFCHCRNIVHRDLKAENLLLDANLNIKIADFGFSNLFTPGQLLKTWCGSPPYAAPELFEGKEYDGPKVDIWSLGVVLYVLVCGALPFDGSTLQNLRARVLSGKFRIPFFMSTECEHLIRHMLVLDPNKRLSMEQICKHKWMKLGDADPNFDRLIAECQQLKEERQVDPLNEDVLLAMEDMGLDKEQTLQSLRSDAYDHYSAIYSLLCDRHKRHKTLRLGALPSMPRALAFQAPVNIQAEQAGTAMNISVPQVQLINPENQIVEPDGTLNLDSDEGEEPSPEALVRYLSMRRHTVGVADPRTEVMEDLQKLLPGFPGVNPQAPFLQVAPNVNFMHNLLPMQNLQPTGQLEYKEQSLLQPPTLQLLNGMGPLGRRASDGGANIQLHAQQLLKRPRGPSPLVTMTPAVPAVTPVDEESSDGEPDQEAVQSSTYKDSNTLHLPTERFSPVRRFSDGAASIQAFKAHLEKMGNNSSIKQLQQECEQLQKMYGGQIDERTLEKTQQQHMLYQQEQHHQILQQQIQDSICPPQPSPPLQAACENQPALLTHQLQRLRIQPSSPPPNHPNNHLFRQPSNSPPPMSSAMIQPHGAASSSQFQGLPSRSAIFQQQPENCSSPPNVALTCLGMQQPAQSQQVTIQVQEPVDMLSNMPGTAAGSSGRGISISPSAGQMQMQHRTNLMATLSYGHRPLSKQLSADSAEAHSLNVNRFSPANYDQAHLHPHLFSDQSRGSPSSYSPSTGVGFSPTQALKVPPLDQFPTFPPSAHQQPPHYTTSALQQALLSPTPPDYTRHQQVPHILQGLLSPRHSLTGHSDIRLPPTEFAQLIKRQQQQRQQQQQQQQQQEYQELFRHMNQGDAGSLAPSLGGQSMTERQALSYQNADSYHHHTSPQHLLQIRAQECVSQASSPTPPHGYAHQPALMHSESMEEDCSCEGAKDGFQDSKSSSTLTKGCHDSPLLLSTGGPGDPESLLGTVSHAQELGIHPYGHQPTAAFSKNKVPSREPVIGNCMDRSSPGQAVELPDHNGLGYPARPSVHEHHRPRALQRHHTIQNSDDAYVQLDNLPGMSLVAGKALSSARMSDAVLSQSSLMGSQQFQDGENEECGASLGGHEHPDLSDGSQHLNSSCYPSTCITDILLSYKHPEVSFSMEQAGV

SMILES	IC50 (MC38 tumour cells)	half-life [1]	IC50 (SIK2)	inhibiting SIK2 compared to PY1 (SIK2)	half-life at 1 uM [2]	solubility kinetic at 24 h (Kinetic solubility assay)	recovery at 5 h, 10 uM [3]	half-life at 1 uM [4]	efflux ratio at 120 min [5]	A > B(10 EE-06 cm/s) (Caco-2 cells monolayer)	recovery at 5 h, 10 uM [6]	kinases inhibited less strongly than by PY1 [7]	kinases inhibited more strongly than by PY1 [7]	overall kinase profile compared to prior art compound PY1 [7]	half-life [8]	IC50 (SIK3)	inhibiting SIK3 compared to PY1 (SIK3)	IC50 (HCT116 tumour cells)	IC50 (PANC1 tumour cells)	selectivity towards SIK3 over SIK2 (SIK3)
COc1ccc(N2C(=O)N(c3c(CF)csc3Cl)Cc3cnc(Nc4ccc(C5CCN(C)CC5)cc4)nc32)nc1 [AA3, 3-(2-chloro-4-(fluoromethyl)thiophen-3-yl)-l-(5-methoxypyridin-2-yl)-7-((4-(l-methylpiperidin-4-yl)phenyl)amino)-3,4-dihydropyrimido[4,5-d]pyrimidin-2(1H)-one]	500 to 1000 nM	20 min	< 50 nM	superior in inhibiting SIK2 and SIK3 compared to PY1	42 min	9.1 µM (≈ 5.41 µg/mL)	45%	108 min	2.9	8.4 10 EE-06 cm/s	34%	SRMS, NLK, RIPK5, LTK and ALK	TAOK2, SYK, TYRO3, ACVR2B, MEKK2, AXL, ITK, MAP3K11, TRKA, MERTK, ZAP70, and MEKK2, and in particular CSF1R, HCK, TXK, YES, LCK, SRC, EPHA1 and FGR	potent inhibitor of surprisingly more kinases than prior art compound PY1	16 min	< 50 nM	superior in inhibiting SIK2 and SIK3 compared to PY1			
COc1ccc(N2C(=O)N(c3c(C(F)F)csc3Cl)Cc3cnc(Nc4ccc(C5CCN(C)CC5)cc4)nc32)nc1 [AA2, 3-(2-chloro-4-(difluoromethyl)thiophen-3-yl)-l-(5-methoxypyridin-2-yl)-7-((4-(l-methylpiperidin-4-yl)phenyl)amino)-3,4-dihydropyrimido[4,5-d]pyrimidin-2(1H)-one]	500 to 1000 nM	10 min	< 50 nM	superior in inhibiting SIK2 and SIK3 compared to PY1	186 min	9.1 µM (≈ 5.57 µg/mL)	38%	82 min	2.7	12.9 10 EE-06 cm/s	32%				12 min	< 50 nM	superior in inhibiting SIK2 and SIK3 compared to PY1			
COc1ccc(N2C(=O)N(c3c(C(F)F)csc3Cl)Cc3cnc(Nc4ccc(C5CCN(C)CC5)cc4OC)nc32)nc1 [AA13, 3-(2-chloro-4-(difluoromethyl)thiophen-3-yl)-7-((2-methoxy-4-(1-methylpiperidin-4-yl)phenyl)amino)-1-(5-methoxypyridin-2-yl)-3,4-dihydropyrimido[4,5-d]pyrimidin-2(1H)-one]	1000 to 1500 nM		100 to 200 nM													100 to 200 nM		> 1500 nM	> 1500 nM	increased selectively towards SIK3 over SIK2
COc1cc(C2CCN(C)CC2)ccc1Nc1ncc2c(n1)N(C)C(=O)N(c1c(CF)csc1Cl)C2 [AA11, 3-(2-chloro-4-(fluoromethyl)thiophen-3-yl)-7-((2-methoxy-4-(1-methylpiperidin-4-yl)phenyl)amino)-1-methyl-3,4-dihydropyrimido[4,5-d]pyrimidin-2(1H)-one]	1000 to 1500 nM		100 to 200 nM									BMX, TEC and in particular BTK	BRAF, NEK2, PRK2, PKC, and in particular KIT, RIPK2, ABL2 and PDGF-alpha	substantially different profile of inhibition of the kinases compared to the prior art compound PY1		< 50 nM		> 1500 nM	> 1500 nM	increased selectively towards SIK3 over SIK2
